Structures are written as SMILES.

For the test, the target named is Bromodomain-containing protein 4 (Homo sapiens, UniProt O60885). Kind of test: Displacement of biotinylated acetylated peptide from recombinant human partial length BRD4 long isoform bromodomain 1/2 (N44 to E460 residues) expressed in Escherichia coli BL21 measured after 1 hr by Bromoscan method.
Turning to `Cc1noc(C)c1-c1ccc2nc(-n3cc(CCO)cn3)nc(NCc3cccc(Cl)c3)c2c1`, the Kd worked out at 140 nM.

For the compound `Cc1noc(C)c1-c1ccc2nc(Cl)nc(NCc3cccc(Cl)c3)c2c1`, the Kd turned out to be 980 nM.

Take `Cc1noc(C)c1-c1ccc2nc(-c3ccc(CO)nc3)nc(NCc3cccc(Cl)c3)c2c1`: the Kd was 250 nM.

Take `CNc1nc(NCc2cccc(Cl)c2)c2cc(-c3c(C)noc3C)ccc2n1`: the Kd stood at 2900 nM.

In general, Kd refers to the free concentration of one partner at which half of the binding sites on the other are occupied at equilibrium, for simple one-to-one binding.

Values taken from BindingDB's records for doi:10.1016/j.bmcl.2018.08.039 (National Institutes of Health, 2018).
